Publication PMC7729925, “Selective hepatitis B and D virus entry inhibitors from the group of pentacyclic lupane-type betulin-derived triterpenoids” (Scientific Reports, 2020)
Where “and” joins values, the source holds several entries; their conditions need not be identical. Identical values can stand only once.

How the values were obtained:
NTCP [1] = target: T1, NTCP (Homo sapiens, UniProt Q14973); assay: [3H]TC transport (bile acid uptake) inhibition in NTCP-HEK293 cells; format: cell-based; conditions: for [3H]TC transport inhibition (in words): 0.1–1,000 µM
T1 construct: expressed in transfected cells
T1 sequence (Q14973 1-349): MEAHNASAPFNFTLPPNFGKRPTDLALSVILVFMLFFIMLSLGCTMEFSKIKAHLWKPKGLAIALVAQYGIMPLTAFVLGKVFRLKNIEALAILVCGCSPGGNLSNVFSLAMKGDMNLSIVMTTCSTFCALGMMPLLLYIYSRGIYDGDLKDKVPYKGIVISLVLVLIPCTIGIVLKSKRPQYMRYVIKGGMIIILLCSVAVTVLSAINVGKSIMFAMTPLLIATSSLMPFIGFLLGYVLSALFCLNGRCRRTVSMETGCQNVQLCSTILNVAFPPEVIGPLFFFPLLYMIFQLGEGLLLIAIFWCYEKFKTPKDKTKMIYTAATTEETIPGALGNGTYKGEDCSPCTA
Description: (§1) The major goal of the present study was to analyze in parallel the effect of inhibitors on both, bile acid transport via NTCP and myr-preS1_2-48 lipopeptide binding to NTCP in a cell culture system. […] NTCP-HEK293 cells were seeded onto 96-well plates and were incubated with tetracycline in order to induce expression of the human NTCP protein. […] Experiments were performed with solvent alone (set to 100%) and with increasing concentrations of the indicated inhibitors. […] Half maximal inhibitory concentrations (IC50) were calculated by nonlinear regression analysis using the equation log(inhibitor) versus response (GraphPad Prism). […] Data represent means ± SD of quadruplicate determinations of representative experiments. […] In parallel, [^3H]preS1 peptide binding experiments were performed with a tritium-labelled myr-preS1_2-48 lipopeptide -HBV subgenotype D3- that was purchased from Pharmaron (120 Ci/mmol, 1 mCi/ml, Cardiff, UK). […] Experiments were stopped after 10 min by two-times washing with ice-cold PBS. For 0% uptake/binding control, the NTCP-HEK293 cells were not induced with tetracycline (-tet). […] Transport rates and [^3H]preS1 binding were determined in counts per minute (cpm). […] IC50 values were calculated from quadruplicate determinations by GraphPad Prism 6 (GraphPad, San Diego, CA, USA).

NTCP [2] = target: T1, NTCP; assay: [3H]preS1 (myr-preS1_2-48 lipopeptide) binding inhibition in NTCP-HEK293 cells; conditions: for IC50: NTCP-HEK293 cells; for Selectivity index: ratio of mean IC50 [3H]TC transport inhibition / IC50 [3H]preS1 binding inhibition
Description: as §1

[3] = 95% confidence interval, inhibition of 1 µM [3H]TC uptake, NTCP-HEK293 cells, 10 min, 37 °C, read-out: IC50 ([3H]TC uptake)
[4] = 95% confidence interval, inhibition of 5 nM [3H]preS1 binding, 10 min, 37 °C, read-out: IC50 ([3H]preS1 binding)
[5] = mean IC50, 5 nM [3H]preS1, standard pH 7.4, read-out: IC50 [3H]preS1 binding inhibition
[6] = mean IC50, […] µM [3H]TC, NTCP-HEK293 cells, standard pH 7.4, read-out: IC50 [3H]TC transport inhibition
[7] = IC50 ([3H]preS1 binding), 95% confidence interval, inhibition of 5 nM [3H]preS1 binding, 10 min, 37 °C

| SMILES | IC50 (NTCP [1]; [3]) [µM] | IC50 (NTCP [2]; [4]) [µM] | Selectivity index (NTCP [2]) | IC50 (NTCP [2]; [5]) | further results |
| --- | --- | --- | --- | --- | --- |
| C=C(C)[C@@H]1CC[C@]2(COC(=O)/C=C/c3ccccc3)CC[C@]3(C)[C@H](CC[C@@H]4[C@@]5(C)CC[C@H](O)C(C)(C)[C@@H]5CC[C@]43C)[C@@H]12 [Compound 15, 28-O-Cinnamoylbetulin] | 72.4 to 236 | 10.9 to 31.8 | 7 |  |  |
| C=C(C)[C@@H]1CC[C@]2(COC(=O)CC(C)(C)CC(=O)O)CC[C@]3(C)[C@H](CC[C@@H]4[C@@]5(C)CC[C@H](OC(=O)CC(C)(C)CC(=O)O)C(C)(C)[C@@H]5CC[C@]43C)[C@@H]12 [Compound 12, 3,28-Di-O-(3,3-dimethylglutaroyl)betulin] | 4.17 to 10.7 | 4.97 to 10.1 | 1 |  |  |
| C=C(C)[C@@H]1CC[C@]2(COC(=O)CCC(=O)O)CC[C@]3(C)[C@H](CC[C@@H]4[C@@]5(C)CC[C@H](O)C(C)(C)[C@@H]5CC[C@]43C)[C@@H]12 [Compound 8, 28-O-Succinoylbetulin] | 5.35 to 10.6 | 1.61 to 4.11 | 3 | 2 to 3 µM | IC50 (NTCP [1]; pH shift experiment, pH 5.5 (DMEM acidified with HCl), read-out: IC50 [3H]TC uptake inhibition at pH 5.5): 200 µM; IC50 (NTCP [1]; pH shift experiment, pH 7.4, read-out: IC50 [3H]TC uptake inhibition at pH 7.4): 8 µM; IC50 [3H]preS1 binding inhibition at pH 5.5 versus pH 7.4 (NTCP [2]; pH lowered from 7.4 to 5.5): did not change |
| CC1(COc2ccc(CC3SC(=O)NC3=O)cc2)CCCCC1 (centres unmarked) [ciglitazone, reference compound] |  |  |  | 1.3 µM |  |
| CC(=O)OC[C@]12CCC(C(C)C)=C1[C@H]1CC[C@@H]3[C@@]4(C)CC[C@H](OC(C)=O)C(C)(C)[C@@H]4CC[C@@]3(C)[C@]1(C)CC2 [Compound 28, 3,28-Di-O-acetyl-18,19-dehydro-20,29-dihydrobetulin] | > 1000 | 30 to 133 | > 16 |  | [3H]TC transport inhibition (in words) (NTCP [1]; NTCP-HEK293 cells): no transport inhibition at all; IC50 (NTCP [1]; [6]): > 1000 µM |
| CC(=O)OC[C@]12CC[C@@H](C3(C)CO3)[C@@H]1[C@H]1CC[C@@H]3[C@@]4(C)CC[C@H](OC(C)=O)C(C)(C)[C@@H]4CC[C@@]3(C)[C@]1(C)CC2 (some centres unmarked) [Compound 26, 3,28-Di-O-acetyl-20,30-epoxybetulin] | 332 to 891 | 26.5 to 73 | 12 |  |  |
| C=C(C)[C@@H]1CC[C@]2(COC(=O)CCC(=O)O)CC[C@]3(C)[C@H](CC[C@@H]4[C@@]5(C)CC[C@H](OC(=O)CCC(=O)O)C(C)(C)[C@@H]5CC[C@]43C)[C@@H]12 [Compound 9, 3,28-Di-O-succinoylbetulin] | 3.11 to 5.02 | 2.94 to 10.1 | 1 | < 10 µM |  |
| C=C(C)[C@@H]1CC[C@]2(C(=O)O)CC[C@]3(C)[C@H](CC[C@@H]4[C@@]5(C)CC[C@H](OC(=O)CC(C)(C)CC(=O)O)C(C)(C)[C@@H]5CC[C@]43C)[C@@H]12 [Compound 11, 3-O-(3,3-Dimethylglutaroyl)betulinic acid] | 3.08 to 4.53 | 3 to 5.21 | 1 |  |  |
| C=C(C)[C@@H]1CC[C@]2(C)CC[C@]3(C)[C@H](CC[C@@H]4[C@@]5(C)CC[C@H](O)C(C)(C)[C@@H]5CC[C@]43C)[C@@H]12 [Compound 3, Lupeol] | > 1000 |  |  |  | IC50 (NTCP [1]): > 1000 µM; IC50 (NTCP [2]; [7]): 26.9 to 97.9 µM |
| C=C(C)C1CCC2(C=NO)CCC3(C)C(CCC4C5(C)CCC(O)C(C)(C)C5CCC43C)C12 (centres unmarked) [Compound 6, Betulinaldehyde oxime] | 360 to 759 | 6.61 to 18.3 | 48 | 11 µM |  |
| C=C(C)C1CCC2(CO)CCC3(C)C(CCC4C5(C)CCC(OC(=O)C=Cc6ccc(O)c(O)c6)C(C)(C)C5CCC43C)C12 (centres unmarked) [Compound 27, 3-O-Caffeoylbetulin] | 85 to 195 | 3.35 to 10 | 22 | 6 µM |  |
| C=C(C)[C@@H]1CC[C@]2(COC(=O)CBr)CC[C@]3(C)[C@H](CC[C@@H]4[C@@]5(C)CC[C@H](O)C(C)(C)[C@@H]5CC[C@]43C)[C@@H]12 [Compound 7, 28-O-(Bromoacetyl)betulin] | 63.5 to 126 | 5.28 to 11.1 | 11 |  |  |
| CC1(C)CC[C@]23CC[C@]4(C)[C@H](CC[C@@H]5[C@@]6(C)CC[C@H](O)C(C)(C)[C@@H]6CC[C@]54C)[C@H]2[C@H]1OC3 [Compound 29, Allobetulin] |  |  |  |  | IC50 (NTCP [1]; read-out: IC50 ([3H]TC uptake)): 212 to 675 µM; IC50 (NTCP [2]; [7]): 9.67 to 20.8 µM |
| C=C(C)[C@@H]1CC[C@]2(CO)CC[C@]3(C)[C@H](CC[C@@H]4[C@@]5(C)CC[C@H](OC(C)=O)C(C)(C)[C@@H]5CC[C@]43C)[C@@H]12 [Compound 22, 3-O-Acetylbetulin] | 36.5 to 152 | 20.6 to 87.4 | 2 |  |  |
| C=C(C)[C@@H]1CC[C@]2(COC3CCCCO3)CC[C@]3(C)[C@H](CC[C@@H]4[C@@]5(C)CC[C@H](O)C(C)(C)[C@@H]5CC[C@]43C)[C@@H]12 (some centres unmarked) [Compound 13, 28-(Tetrahydro-2H-pyran-2-yl)betulin] | 116 to 628 | 9.34 to 19.5 | 19 | 11 to 50 µM |  |
| C=C(C)[C@@H]1CC[C@]2(C=O)CC[C@]3(C)[C@H](CC[C@@H]4[C@@]5(C)CCC(=O)C(C)(C)[C@@H]5CC[C@]43C)[C@@H]12 [Compound 18, Betulonaldehyde] | 88.5 to 175 |  |  |  |  |
| C=C(C)[C@@H]1CC[C@]2(COC3CCCCO3)CC[C@]3(C)[C@H](CC[C@@H]4[C@@]5(C)CC[C@H](OC(C)=O)C(C)(C)[C@@H]5CC[C@]43C)[C@@H]12 (some centres unmarked) [Compound 23, 3-O-Acetyl-28-(tetrahydro-2H-pyran-2-yl)betulin] | 119 to 947 | 11 to 114 | 10 |  |  |
| C=C(C)C1CCC2(COC(C)=O)CCC3(C)C(CCC4C5(C)CCC(OC(C)=O)C(C)(C)C5CCC43C)C12 (centres unmarked) [Compound 24, 3,28-Di-O-acetylbetulin] | > 1000 | 52.6 to 756 | > 5 | 199 µM | [3H]TC transport inhibition (in words) (NTCP [1]; NTCP-HEK293 cells): no transport inhibition at all; IC50 (NTCP [1]; [6]): > 1000 µM |
| C=C(C)[C@@H]1CC[C@]2(COC(=O)CC(C)(C)CC(=O)O)CC[C@]3(C)[C@H](CC[C@@H]4[C@@]5(C)CC[C@H](O)C(C)(C)[C@@H]5CC[C@]43C)[C@@H]12 [Compound 10, 28-O-(3,3-Dimethylglutaroyl)betulin] | 3 to 5.91 | 2.48 to 7.02 | 1 | < 10 µM |  |
| C=C(C)[C@@H]1CC[C@]2(C(=O)O)CC[C@]3(C)[C@H](CC[C@@H]4[C@@]5(C)CC[C@H](OC(C)=O)C(C)(C)[C@@H]5CC[C@]43C)[C@@H]12 [Compound 21, 3-O-Acetylbetulinic acid] | 7.19 to 30.3 | 1.81 to 5.31 | 5 | 2 to 3 µM and < 10 µM |  |
| C=C(C)[C@@H]1CC[C@]2(COC(=O)CCc3ccccc3)CC[C@]3(C)[C@H](CC[C@@H]4[C@@]5(C)CC[C@H](OC(=O)CCc6ccccc6)C(C)(C)[C@@H]5CC[C@]43C)[C@@H]12 [Compound 16, 3,28-Di-O-(dihydrocinnamoyl)betulin] | 176 to 1230 | 24.8 to 229 | 6 |  |  |
| C=C(C)[C@@H]1CC[C@]2(C(=O)OC)CC[C@]3(C)[C@H](CC[C@@H]4[C@@]5(C)CC[C@H](O)C(C)(C)[C@@H]5CC[C@]43C)[C@@H]12 [Compound 5, Methyl betulinate] |  |  |  |  | IC50 (NTCP [1]; read-out: IC50 ([3H]TC uptake)): 47.1 to 100 µM; IC50 (NTCP [2]; [7]): 12.7 to 83.5 µM |
| C=C(C)[C@@H]1CC[C@]2(COC(=O)c3cccnc3)CC[C@]3(C)[C@H](CC[C@@H]4[C@@]5(C)CC[C@H](O)C(C)(C)[C@@H]5CC[C@]43C)[C@@H]12 [Compound 14, 28-O-Nicotinoylbetulin] | 185 to 532 | 36.5 to 109 | 5 |  |  |
| C=C(CO)C1CCC2(COC(C)=O)CCC3(C)C(CCC4C5(C)CCC(OC(C)=O)C(C)(C)C5CCC43C)C12 (centres unmarked) [Compound 25, 3,28-Di-O-acetyl-29-hydroxybetulin] | > 1000 | 5.29 to 13 |  | < 10 µM and 8 µM | [3H]TC transport inhibition (in words) (NTCP [1]; NTCP-HEK293 cells): no transport inhibition at all; IC50 (NTCP [1]; [6]): > 1000 µM |
